Article PMC8039944, “Characterization of drug-induced human mitochondrial ADP/ATP carrier inhibition” (Theranostics, 2021)

Experiments:
[1] = molecular target: T1, human mitochondrial ADP/ATP carrier isoform 1 (hAAC1) (Homo sapiens, UniProt P12235); design: gene SLC25A4
T1 sequence (P12235 11-298): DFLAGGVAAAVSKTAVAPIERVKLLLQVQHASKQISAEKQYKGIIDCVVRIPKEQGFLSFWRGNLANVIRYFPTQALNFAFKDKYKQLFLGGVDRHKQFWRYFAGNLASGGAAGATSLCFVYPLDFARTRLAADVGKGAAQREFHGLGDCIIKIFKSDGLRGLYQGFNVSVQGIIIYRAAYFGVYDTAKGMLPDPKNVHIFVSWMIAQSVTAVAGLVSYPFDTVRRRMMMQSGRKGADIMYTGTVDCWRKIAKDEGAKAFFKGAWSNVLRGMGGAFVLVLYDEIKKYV

[2] = molecular target: T1, human mitochondrial ADP/ATP carrier isoform 1 (hAAC1); experiment: […]-ATP uptake in proteoliposomes, dose-response; type: biochemical; design: gene SLC25A4; hAAC1Δ1-10, residues 11-298
[3] = molecular target: T1, human mitochondrial ADP/ATP carrier isoform 1 (hAAC1); experiment: […]-ATP uptake in proteoliposomes, inhibition at […]; type: biochemical; design: gene SLC25A4; hAAC1Δ1-10, residues 11-298; settings: read-out: % inhibition at 100 μM
[4] = molecular target: T1, human mitochondrial ADP/ATP carrier isoform 1 (hAAC1); experiment: […]-ATP uptake in proteoliposomes, dose-response; CPM thermal shift (+[…] °C at […]); type: biochemical; design: gene SLC25A4; hAAC1Δ1-10, residues 11-298

`Nc1ncnc2c1ncn2[C@@H]1O[C@H](COP(=O)(O)OP(=O)(O)OP(=O)(O)O)[C@@H](O)[C@H]1O` [ATP] was tested. Which Km [1] did it give?
The Km was 3.2 µM.

For `O=C(O)c1ccc2cc(-c3ccc(O)c(C45CC6CC(CC(C6)C4)C5)c3)ccc2c1` [CD-437], which IC50 ([2]; read-out: IC50) is on record?
Its IC50 is 20 µM.

How did the inhibition at 100 µM [3] turn out when `O=C1c2c(O)cccc2Cc2cccc(O)c21` [anthralin] was run?
The inhibition at 100 µM was 77%.

For `O=C(O)C[C@@H]1C(=O)O[C@H]2[C@H](OC(=O)c3cc(O)c(O)c(O)c3)[C@@H](OC(=O)c3cc(O)c(O)c4c3[C@H]1[C@H](O)C(=O)O4)[C@H](OC(=O)c1cc(O)c(O)c(O)c1)O[C@@H]2COC(=O)c1cc(O)c(O)c(O)c1` [chebulinic acid], which IC50 [2] is on record?
Its IC50 is 6.5 µM.

Which IC50 [4] does the source give for `Cc1ccc(C(=O)Nc2ccc(S(=O)(=O)O)c3cc(S(=O)(=O)O)cc(S(=O)(=O)O)c23)cc1NC(=O)c1cccc(NC(=O)Nc2cccc(C(=O)Nc3cc(C(=O)Nc4ccc(S(=O)(=O)O)c5cc(S(=O)(=O)O)cc(S(=O)(=O)O)c45)ccc3C)c2)c1` [suramin] here?
Its IC50 is 2.4 µM.

`CC1=C(/C=C/C(C)=C/C=C/C(C)=C/C(=O)O)C(C)(C)CCC1` [tretinoin] was tested. Which inhibition at 100 µM [3] did it give?
The inhibition at 100 µM was 59%.
